Target: T1, Human SST5 somatostatin receptor (SSTR5) (Homo sapiens, UniProt P35346)
T1 construct: expressed in transfected cells; host or cells: HEK-293 EBNA
Assay: Filter plate assay for SST5 receptor, displacement of [125I]SST-14
Assay type: binding
Method: Receptor membrane preparations containing the desired cloned receptor (for example cloned human somatostatin receptor subtype 5, SSTR5) and radio-labeled ligand (for example 3-[^125I]iodotyrosyl^11 Somatostatin-14)) were diluted at the concentration required for testing and according to the specific parameters associated with the selected receptor-ligand combination, including receptor Bmax, ligand Kd and any other parameters necessary to optimize the experimental conditions. When tested for competition activity to the reference ligand, “compound 1” was mixed with membrane suspension and the radiolabeled reference ligand (with or without an excess of cold ligand to the receptor for determination of non-specific binding) and incubated at the temperature required by internal standard operating procedures. Following incubation, the binding reaction was stopped by the addition of ice-cold washing buffer and filtered on appropriate filters, which are then counted. Data analysis and curve-fitting was performed with XLfit (IDBS).
10 mM solutions of test compounds in 100% DMSO were prepared. ˜160 μl was used for each dilution (20 μl/well in triplicate).
A 1.25 mM assay stock was prepared by making a 1:8 dilution of the 10 mM solution. (To 30 μL of the 10 mM solution was added 210 μL milli-Q H2O. A 1:5 dilution series in milli-Q H2O was then prepared.
Assays were performed in triplicate at each concentration within the 1:5 dilution series: 250 μM, 50 μM, 10 μM, […], 0.4 μM, 0.08 μM, 0.016 μM, 0.0032 μM, etc. (for SST4 assay) and 125 μM, 10 μM, 2 μM, 1 μM, 0.5 μM, etc (for SST5 assay).
Human SST5 somatostatin receptor was transfected into HEK-293 EBNA cells. Membranes were suspended in assay buffer (50 mM Tris-HCl, 1 mM EGTA, 5 mM MgCl2, 10% sucrose, pH 7.5).
After thawing the frozen receptor preparation rapidly, receptors were diluted with binding buffer, homogenized, and kept on ice. • 1. Use Multiscreen glass fiber filter plates (Millipore, Cat No MAFCNOB10) precoated with o.5% PEI for ˜2 hr at 4° C. Before use add 200 μl/well assay buffer and filter using Multiscreen Separation System. • 2. Incubate 5.5 μg of membranes (40 μl of a 1:40 dilution), buffer and [^125I]SST-14 (4 nM, ˜80 000 cpm, 2000 Ci/mmol) in a total volume of 200 μl for 60 min at 25° C. […] Prepare serial dilutions (1:5) of compounds, as described above and instead of adding SST-14 in well, add 20 μl of compounds (Table 1). • 3. Filter using Multiscreen Separation System with 5×0.2 ml ice-cold Assay buffer. • 4. Remove the plastic underdrain and dry plate in oven for 1 hr at 40° C. • 5. Seal tape to the bottom of the plate. • 6. Add 50 μl/well scintillant (Supermix, Wallac, Cat No 1200-439). • 7. Seal and count in the BJET, program 2.
In primary screening experiments compounds were tested in duplicate for a particular concentration.

T1 sequence (P35346 whole entry): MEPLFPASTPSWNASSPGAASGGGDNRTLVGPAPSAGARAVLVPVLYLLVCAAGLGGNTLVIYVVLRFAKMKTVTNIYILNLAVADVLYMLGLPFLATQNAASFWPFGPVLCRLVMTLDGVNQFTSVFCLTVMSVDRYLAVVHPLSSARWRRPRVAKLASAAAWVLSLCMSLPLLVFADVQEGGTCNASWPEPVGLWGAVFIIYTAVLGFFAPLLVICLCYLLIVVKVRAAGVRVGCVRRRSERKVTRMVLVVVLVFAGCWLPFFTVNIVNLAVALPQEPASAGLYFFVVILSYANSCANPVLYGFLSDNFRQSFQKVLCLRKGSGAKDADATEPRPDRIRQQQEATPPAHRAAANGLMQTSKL

SSTR5 Inhib 0.5 uM % (inhibition of binding of SST-14 to SSTR5) [%] | SSTR5 Inhib 10 uM % (inhibition of binding of SST-14 to SSTR5) [%] | SMILES
36 | 76 | COC[C@H]1OC(OCc2ccc3ccccc3c2)[C@H](NC(=O)CCNC(=N)N)[C@@H](OCc2ccc3ccccc3c2)[C@@H]1O (some centres unmarked) [Compound 151]
39 | 71 | COC[C@H]1OC(OCc2ccc(-c3ccccc3)cc2)[C@H](NC(=O)CCCNC(=N)N)[C@@H](OCc2ccc3ccccc3c2)[C@@H]1O (some centres unmarked) [Compound 178]
35 | 76 | CSC1O[C@H](COCc2ccccc2)[C@@H](O)[C@@H](OCc2ccc(-c3ccccc3)cc2)[C@H]1NC(=O)CNC(=N)N (some centres unmarked) [Compound 149]
20 | 75 | CO[C@H]1[C@H](O)[C@@H](COCc2ccc(-c3ccccc3)cc2)OC(OCc2ccc(-c3ccccc3)cc2)[C@@H]1NC(=O)CCCNC(=N)N (some centres unmarked) [Compound 157]
51 | 74 | CO[C@H]1[C@H](O)[C@@H](COCc2ccc(-c3ccccc3)cc2)OC(OCc2ccc3ccccc3c2)[C@@H]1NC(=O)CCCN (some centres unmarked) [Compound 161]
38 | 78 | COC1C(O)C(COCc2ccc3ccccc3c2)OC(OCCc2ccccc2)C1NC(=O)CCCN (centres unmarked) [Compound 140]
44 | 72 | COC1C(O)C(COCc2ccc(-c3ccccc3)cc2)OC(OCc2ccccc2)C1NC(=O)CCCNC(=N)N (centres unmarked) [Compound 171]
40 | 77 | COC[C@H]1OC(OCc2ccc3ccccc3c2)[C@H](NC(=O)CCCN)[C@@H](OCc2cccc(O)c2)[C@@H]1O (some centres unmarked) [Compound 146]
36 | 73 | COC[C@H]1OC(OCCc2ccccc2)[C@H](NC(=O)CCNC(=N)N)[C@@H](OCc2ccc(Cl)cc2)[C@@H]1O (some centres unmarked) [Compound 166]
29 | 70 | CO[C@H]1[C@H](O)[C@@H](COCc2ccc(-c3ccccc3)cc2)OC(OCc2ccc(-c3ccccc3)cc2)[C@@H]1NC(=O)CCCN (some centres unmarked) [Compound 179]
21 | 72 | COC[C@H]1OC(OCc2ccccc2)[C@H](NC(=O)CCNC(=N)N)[C@@H](OCc2ccc(-c3ccccc3)cc2)[C@@H]1O (some centres unmarked) [Compound 172]

The remaining lines, values behind:

SMILES | SSTR5 Inhib 0.5 uM % (inhibition of binding of SST-14 to SSTR5) [%] | SSTR5 Inhib 10 uM % (inhibition of binding of SST-14 to SSTR5) [%]
COC[C@H]1OC(OCc2ccc3ccccc3c2)[C@H](NC(=O)CCCN)[C@@H](OCc2ccc(-c3ccccc3)cc2)[C@@H]1O (some centres unmarked) [Compound 29] | 77 | 96
COC[C@H]1OC(OCc2ccc(Cl)cc2)[C@H](NC(=O)CCNC(=N)N)[C@@H](OCc2ccc(-c3ccccc3)cc2)[C@@H]1O (some centres unmarked) [Compound 101] | 50 | 84
COC[C@H]1OC(OCc2ccccc2)[C@H](NC(=O)CCCN)[C@@H](OCc2ccc(Cl)cc2)[C@@H]1O (some centres unmarked) [Compound 110] | 45 | 83
COC1C(O)C(COCc2ccc3ccccc3c2)OC(OCc2ccc(Cl)cc2)C1NC(=O)C1CCN(C(=N)N)CC1 (centres unmarked) [Compound 79] | 55 | 88
CSC1O[C@H](COCc2ccccc2)[C@@H](O)[C@@H](OCc2ccc(Cl)cc2)[C@H]1NC(=O)CCNC(=N)N (some centres unmarked) [Compound 118] | 37 | 81
CSC1O[C@H](COCc2ccc3ccccc3c2)[C@@H](O)[C@@H](OCc2ccccc2)[C@H]1NC(=O)CCNC(=N)N (some centres unmarked) [Compound 89] | 58 | 86
CSC1O[C@H](COCc2ccccc2)[C@@H](O)[C@@H](OCc2ccc(Cl)cc2)[C@H]1NC(=O)CNC(=N)N (some centres unmarked) [Compound 45] | 71 | 93
COC[C@H]1OC(OCc2ccc3ccccc3c2)[C@H](NC(=O)CCNC(=N)N)[C@@H](OCc2ccc(-c3ccccc3)cc2)[C@@H]1O (some centres unmarked) [Compound 52] | 69 | 92
COC[C@H]1OC(OCc2ccc(Cl)cc2)[C@H](NC(=O)CCCN)[C@@H](OCc2ccc(-c3ccccc3)cc2)[C@@H]1O (some centres unmarked) [Compound 90] | 52 | 86
CSC1O[C@H](COCc2ccccc2)[C@@H](O)[C@@H](OCc2ccc3ccccc3c2)[C@H]1NC(=O)CNC(=N)N (some centres unmarked) [Compound 72] | 51 | 89
COC[C@H]1OC(OCCc2ccccc2)[C@H](NC(=O)CCCN)[C@H](OCc2ccc3ccccc3c2)[C@@H]1O (some centres unmarked) [Compound 28] | 70 | 96
CSC1O[C@H](COCc2ccc3ccccc3c2)[C@@H](O)[C@@H](OCc2ccccc2)[C@H]1NC(=O)CCN (some centres unmarked) [Compound 105] | 44 | 83
COC[C@H]1OC(OCc2ccc(-c3ccccc3)cc2)[C@H](NC(=O)CCCN)[C@@H](OCc2ccc(-c3ccccc3)cc2)[C@@H]1O (some centres unmarked) [Compound 80] | 44 | 88
COC[C@H]1OC(OCc2ccc3ccccc3c2)[C@H](NC(=O)CCCN)[C@H](OCc2ccc(-c3ccccc3)cc2)[C@@H]1O (some centres unmarked) [Compound 43] | 68 | 94
COC[C@H]1OC(OCc2ccc3ccccc3c2)[C@H](NC(=O)CCCN)[C@@H](OCc2ccc(Cl)cc2)[C@@H]1O (some centres unmarked) [Compound 61] | 61 | 90
CSC1O[C@H](COCc2ccccc2)[C@@H](O)[C@@H](OCc2ccc3ccccc3c2)[C@H]1NC(=O)CCN (some centres unmarked) [Compound 109] | 44 | 83
COC[C@H]1OC(OCc2ccc(Cl)cc2)[C@H](NC(=O)CCCNC(=N)N)[C@@H](OCc2ccc(-c3ccccc3)cc2)[C@@H]1O (some centres unmarked) [Compound 96] | 43 | 85
COC[C@H]1OC(OCc2ccccc2)[C@H](NC(=O)CCCN)[C@H](OCc2ccc(-c3ccccc3)cc2)[C@@H]1O (some centres unmarked) [Compound 46] | 71 | 93
COC[C@H]1OC(OCc2ccc(Cl)cc2)[C@H](NC(=O)CCCN)[C@@H](OCc2ccc3ccccc3c2)[C@@H]1O (some centres unmarked) [Compound 19] | 88 | 98
COC[C@H]1OC(OCCc2ccccc2)[C@H](NC(=O)CCCN)[C@@H](OCc2ccc(Cl)cc2)[C@@H]1O (some centres unmarked) [Compound 42] | 77 | 94
COC[C@H]1OC(OCc2ccccc2)[C@H](NC(=O)CCN)[C@H](OCc2ccc(-c3ccccc3)cc2)[C@@H]1O (some centres unmarked) [Compound 54] | 60 | 91
COC[C@H]1OC(OCc2ccc3ccccc3c2)[C@H](NC(=O)CCN)[C@H](OCc2ccccc2)[C@@H]1O (some centres unmarked) [Compound 21] | 81 | 97
COC[C@H]1OC(OCCc2ccccc2)[C@H](NC(=O)CCCN)[C@@H](OCc2ccc3ccccc3c2)[C@@H]1O (some centres unmarked) [Compound 73] | 56 | 89

From patent US20080280837A1, “Biologically Active Compounds with Anti-Angiogenic Properties” (priority 2004, published 2008)
